Tested on: wild type mice
Assay: 14 days of overload (synergist ablation of GTN and SOL) with daily injection of SIRT1 inhibitor; plantaris muscle hypertrophy
Format: in vivo
Source text: The plantaris (PLN) muscle in test subjects was overloaded by removal of the gastrocnemius (GTN) and soleus (SOL) muscles, termed synergist ablation. Briefly, test animals were anaesthetized and the area above the incision shaved and sterilized. The SOL and GTN were isolated and severed at the Achilles tendon. The complete SOL and the distal two thirds of the GTN were removed leaving the PLN muscle and their blood and nerve supply intact. The overlying skin was sutured with 6-0 vicryl and the animal was then given the analgesic and moved to a temperature-controlled environment to recover. […] Animals were monitored on a daily basis for signs of pain or post-operative infection. […] On the day of collection, animals were anaesthetized and overloaded and contralateral control muscles were rapidly removed, rinsed in PBS, all connective/scar tissue was removed using a dissection microscope, then the muscles were snap frozen in liquid nitrogen, and stored at −80° C. until processed.
To determine whether the effect of SIRT1 on overload-induced muscle hypertrophy required genetic ablation or whether pharmacological ablation of SIRT1 activity could mimic the effect of the knockout, GTN and SOL muscles of wild type mice were removed and half of the mice received daily injections of the SIRT1 inhibitor Splitomycin. There were 14 days of overload performed in wild type mice concurrent with daily injection of either saline (CON) or Splitomycin (Split).

O=C1CCc2c(ccc3ccccc23)O1 [Splitomycin]
effectiveness of therapeutic dose (in words) (25 mg/kg body weight per day): effective | effect on basal muscle mass (14 days of daily injection): without affecting basal muscle mass | effect on muscle hypertrophy (in words) (wild type mice, 14 days of overload, daily injection, saline (CON) vs Splitomycin (Split), FIG. 6): increases muscle hypertrophy | more muscle hypertrophy than vehicle (saline) injection (wild type mice, 14 days of overload, daily injection, versus saline/vehicle (FIG. 6)): 65%

From patent US9480675B2, “Method for increasing muscle growth by blocking sirtuin activity” (THE REGENTS OF THE UNIVERSITY OF CALIFORNIA, priority 2013, dated 2016)
